Source: patent US9737504B2, “Dihydroorotic and acid dehydrogenase inhibitor” (NAI INC., priority 2012, dated 2017)
Read-outs that look alike come from different tables or passages of the source.

Columns and labels:
ACHN = assay: JFCR39 cancer cell growth inhibition test, ACHN; type: cell-based; conditions: Homo sapiens, Re (Renal)
human DHOD = human DHOD (Homo sapiens, UniProt Q02127); assay: Measurement of DHOD inhibitory activity (DCIP reduction, end point assay); type: biochemical
Description: The compounds of the present invention were used and measured for their DHOD inhibitory activity at concentrations of 200 nM and 1000 nM.
Reduction of DCIP was measured at 600 nm over 20 minutes.

MKN45 = assay: JFCR39 cancer cell growth inhibition test, MKN45; type: cell-based; conditions: Homo sapiens, MKN-45; MKN45, St (Stomac)
KM-12 = assay: JFCR39 cancer cell growth inhibition test, KM-12; type: cell-based; conditions: Homo sapiens, KM12; KM-12, Co (Colon)
[1] = system: HDF cells (human dermal fibroblast cells); assay: Inhibitory effect on HDF cells, control vs hypoxic and subnutritional conditions; type: cell-based; conditions: for IC50: Homo sapiens, HDF normal skin cells
Description: For these reasons, cells of colorectal and pancreatic cancers, each being regarded as intractable, were used to test the inhibitory effect of compounds under hypoxic and subnutritional conditions. Moreover, the same test was also performed on normal skin cells.
The cells used were two types of cancer cells, i.e., DLD-1 cells (human colorectal cancer cells) and Panc-1 cells (human pancreatic cells), as well as HDF cells (human dermal fibroblast cells).

SNB-78 = assay: JFCR39 cancer cell growth inhibition test, SNB-78; type: cell-based; conditions: Homo sapiens; SNB-78, CNS (Central Nervous Systems)
SF-539 = assay: JFCR39 cancer cell growth inhibition test, SF-539; type: cell-based; conditions: Homo sapiens; SF-539, CNS (Central Nervous Systems)

Sequence of human DHOD (Q02127 whole entry): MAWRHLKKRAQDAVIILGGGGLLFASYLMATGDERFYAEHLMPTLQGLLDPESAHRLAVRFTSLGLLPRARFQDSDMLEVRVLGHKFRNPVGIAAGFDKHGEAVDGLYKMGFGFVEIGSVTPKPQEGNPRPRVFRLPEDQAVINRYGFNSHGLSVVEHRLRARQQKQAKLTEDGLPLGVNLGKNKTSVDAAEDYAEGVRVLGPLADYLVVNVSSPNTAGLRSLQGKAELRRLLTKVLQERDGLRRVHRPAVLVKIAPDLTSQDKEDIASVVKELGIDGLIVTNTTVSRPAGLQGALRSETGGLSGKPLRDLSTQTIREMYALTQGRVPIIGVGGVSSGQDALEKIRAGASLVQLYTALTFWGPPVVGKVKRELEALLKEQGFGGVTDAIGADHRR

C/C(=C\Cc1c(O)c(Cl)c(C)c(C=O)c1O)CC/C=C(\C)[C@@H]1CC(=O)C(C)(C)O1 (racemic) [Ascofuranone, dl-5-Chloro-2,4-dihydroxy-6-methyl-3-[(2E,6E)-3-methyl-7-(3,3-dimethyl-4-oxo-2-oxacyclopentyl)-2,6-octadienyl]benzaldehyde]
GI50 (ACHN): 10 µM
inhibition at 0.2 µM (human DHOD; read-out: DHOD inhibition rate (%) 200 nM, 200 nM compound): 73%
IC50 (human DHOD; read-out: IC50 (nM) human DHOD (HsDHOD)): 38 nM
GI50 (MKN45): 10 µM
GI50 (KM-12): 9.3 µM
Selectivity = 21% glc(+)gln(+) IC50/1% glc(−)gln(−) IC50 ([1]; HDF): >63
IC50 ([1]; read-out: IC50 [μM] 1% O2 glc(−)gln(−), 1% O2 glc(−)gln(−)): 1.6 µM
IC50 ([1]; 21% O2 glc(+)gln(+), read-out: IC50 [μM] 21% O2 glc(+)gln(+)): > 100 µM
GI50 (SNB-78): 23 µM
GI50 (SF-539): 1.7 µM
